Experimental data taken from patent US4316898A, “Cephalosporins” (Boehringer Ingelheim KG, priority 1979, dated 1982).
Values after ≈ are worked out from the molar mass of the structure shown.

Tests used:
[1] = tested on: Staphylococcus aureus SG 511; experiment: Serial dilution test in the microtiter system, MIC against S. aureus SG 511; type: cell-based; settings: SG511, minimum inhibitory concentration, 37° C., 18 to 20 hours
Protocol: (§1) The tests were performed using the serial dilution test in the microtiter system. The effect of the test compounds on bacteriostasis was examined at the following concentrations: 80, 40, 20, 10, 5, 2.5, 1.25, 0.6, 0.3, 0.08 and 0.02 μgm/ml. The nutrient medium consisted of 10 gm of peptone, 8 gm of meat extract oxoid, 3 gm of sodium chloride, and 2 gm of sec. sodium phosphate diluted with distilled water to […] (pH 7.2-7.4). Only in the test against streptococci 1% of glucose was added. The age of the primary cultures was approximately 20 hours. The standardization of the bacteria suspension was effected using a photometer according to the method of Eppendorf (test tube .phi. 14 mm, filter 546 nm), using for comparison a barium sulfate suspension formed by the addition of 3.0 ml of 1% barium chloride solution to 97 ml of 1% sulfuric acid. After the standardization,Streptococcus aronson was further diluted to a concentration of 1:15, and the other bacteria to a concentration of 1:1500, using a sodium chloride solution.
(§2) 16 mgm of the particular test compound were put into a 10 ml measuring flask, and the flask was subsequently filled to the mark with solvent. The further dilution series was standardized with distilled water or the appropriate solvent.
(§3) The cavities of the microtiter plates were filled with 0.2 ml of nutrient medium. 0.01 ml of the appropriate test compound solution was then added, followed by inoculation with 0.01 ml of the standardized bacteria suspension. The bacteria were incubated at 37° C. for 18 to 20 hours. Control tests using only the solvent were carried out simultaneously.
(§4) The measurement was carried out macroscopically to determine the minimum inhibitory concentration (the lowest still bacteriostatically effective concentration).
(§5) The following test organisms were used:
(§6) Staphylococcus aureus SG 511, St. aureus E 88 (β-lactamase carrier), Escherichia coli ATCC 11 775, Pseudomonas aeruginosa Hamburgensis and Pseudomonas aeruginosa Walter, Serratia macrescens ATCC 13 880, Klebsiella pneumoniae ATCC 10 031 and 272, Proteus mirabilis Hamburgensis, Proteus rettgeri Eb. cloaceae ATCC 13047, and E. coli R+TEM (β-lactamase carrier).
(§7) The following tables show the determined minimum inhibitory concentrations (MIC) for a few representative compounds (E=Na) of the present invention, and two known cephalosporins for comparison: […]

St. aureus E 88 = experiment: Serial dilution test in the microtiter system, MIC against S. aureus E 88 (β-lactamase carrier); type: cell-based; settings: Staphylococcus aureus, E88, minimum inhibitory concentration, 37° C., 18 to 20 hours
Protocol: as §1, §2, §3, §4, §5, §6, §7

[2] = tested on: Escherichia coli ATCC 11 775; experiment: Serial dilution test in the microtiter system, MIC against E. coli ATCC 11775; type: cell-based; settings: minimum inhibitory concentration, 37° C., 18 to 20 hours
Protocol: as §1, §2, §3, §4, §5, §6, §7

[3] = tested on: Pseudomonas aeruginosa Hamburgensis; experiment: Serial dilution test in the microtiter system, MIC against Pseudomonas aeruginosa Hamburgensis; type: cell-based; settings: minimum inhibitory concentration, 37° C., 18 to 20 hours, read-out: MIC, Pseud. aerug. Hbg.
Protocol: as §1, §2, §3, §4, §5, §6, §7

[4] = tested on: Pseudomonas aeruginosa Walter; experiment: Serial dilution test in the microtiter system, MIC against Pseudomonas aeruginosa Walter; type: cell-based; settings: minimum inhibitory concentration, 37° C., 18 to 20 hours, read-out: MIC, Pseud. aerug. Walter
Protocol: as §1, §2, §3, §4, §5, §6, §7

[5] = tested on: Klebsiella pneumoniae ATCC 10 031; experiment: Serial dilution test in the microtiter system, MIC against Klebsiella pneumoniae ATCC 10031; type: cell-based; settings: minimum inhibitory concentration, 37° C., 18 to 20 hours, read-out: MIC, Klebs. pneum. ATCC 10031
Protocol: as §1, §2, §3, §4, §5, §6, §7

[6] = tested on: Klebsiella pneumoniae 272; experiment: Serial dilution test in the microtiter system, MIC against Klebsiella pneumoniae 272; type: cell-based; settings: minimum inhibitory concentration, 37° C., 18 to 20 hours, read-out: MIC, Klebs. pneum. 272
Protocol: as §1, §2, §3, §4, §5, §6, §7

[7] = tested on: Proteus mirabilis Hamburgensis; experiment: Serial dilution test in the microtiter system, MIC against Proteus mirabilis Hamburgensis; type: cell-based; settings: minimum inhibitory concentration, 37° C., 18 to 20 hours, read-out: MIC, Prot. Mir. Hbg.
Protocol: as §1, §2, §3, §4, §5, §6, §7

Proteus rettgeri = experiment: Serial dilution test in the microtiter system, MIC against Proteus rettgeri; type: cell-based; settings: Providencia rettgeri; minimum inhibitory concentration; 37° C., 18 to 20 hours; read-out: MIC, Prot. rettg.
Protocol: as §1, §2, §3, §4, §5, §6, §7

Eb. cloaceae ATCC 13047 = experiment: Serial dilution test in the microtiter system, MIC against Eb. cloaceae ATCC 13047; type: cell-based; settings: minimum inhibitory concentration; 37° C., 18 to 20 hours
Protocol: as §1, §2, §3, §4, §5, §6, §7

E. coli R+TEM = experiment: Serial dilution test in the microtiter system, MIC against E. coli R+TEM (β-lactamase carrier); type: cell-based; settings: Escherichia coli, read-out: MIC, E. coli R + TEM
Protocol: as §1, §2, §3, §4, §5, §6, §7

[8] = tested on: Serratia macrescens ATCC 13 880; experiment: Serial dilution test in the microtiter system, MIC against Serratia marcescens ATCC 13880; type: cell-based; settings: read-out: MIC, Serr. marcesc. ATCC 13880
Protocol: as §1, §2, §3, §4, §5, §6, §7

E. coli ATCC 11775 = experiment: In vivo test in mice against experimental E. coli infection; parameters: species or system Female NMRI mice; settings: Escherichia coli, ATCC11775, sc, 168 h; subcutaneous; per dose; dose at which 50% of the animals survived; observation 7 days
Protocol: (§8) A series of the compounds according to the invention was tested in vivo in mice against experimental infections. As pathogenic bacteria were used E. coli ATCC 11775 and Pseudomonas aeruginosa Walter. An intraperitoneal infection was induced in each mouse with 0.2 ml of a 5% mucin suspension of the bacteria corresponding of approximately 1.4×10^6 E. coli cells and 1.3×10^6 Pseudomonas cells per mouse. Female NMRI mice were used, divided into groups of 10 animals. Two groups were untreated and the remaining groups were treated with different doses of the cephalosporins to be tested to determine the ED50 (dose at which 50% of the animals survived). The groups infected with E. coli were on the first day treated with the test compound three times ([…] post infectionem) and on the second day twice. The groups with the Pseudomonas infection were on the first day treated with the test compound six times (1, 3, 5, 7, 9 and 11 hours post infectionem), and on the following two days twice.
(§9) The observation time was in both cases 7 days.

[9] = tested on: Pseudomonas aeruginosa Walter; experiment: In vivo test in mice against experimental Pseudomonas infection; parameters: species or system Female NMRI mice; settings: Pseudomonas aeruginosa, sc, 168 h; subcutaneous; per dose; dose at which 50% of the animals survived; observation 7 days
Protocol: as §8, §9

Q: What does the source list for `CNS(=O)(=O)c1ccc(Nc2ncc(NC(=O)N[C@@H](C(=O)N[C@@H]3C(=O)N4C(C(=O)O)=C(CSc5nnnn5C)CS[C@H]34)c3ccc(O)cc3)c(O)n2)cc1` [K]?
A: MIC [1]: 0.5 µg/mL (≈ 0.626 µM); MIC (St. aureus E 88): 4 µg/mL (≈ 5.01 µM); MIC [2]: < 0.03 µg/mL; MIC [3]: 4 µg/mL (≈ 5.01 µM); MIC [4]: 2 µg/mL (≈ 2.5 µM); MIC [5]: 0.06 µg/mL (≈ 0.0751 µM); MIC [6]: 0.13 µg/mL (≈ 0.163 µM); MIC [7]: 0.06 µg/mL (≈ 0.0751 µM); MIC (Proteus rettgeri): 0.25 µg/mL (≈ 0.313 µM); MIC (Eb. cloaceae ATCC 13047): 0.5 µg/mL (≈ 0.626 µM); MIC (E. coli R+TEM): 2 µg/mL; MIC [8]: 0.13 µg/mL (≈ 0.163 µM); ED50 (E. coli ATCC 11775): 0.3 mg/kg; ED50 [9]: 3.6 mg/kg

Q: What does the source list for `Cn1nnnc1SCC1=C(C(=O)O)N2C(=O)[C@@H](NC(=O)[C@H](NC(=O)Nc3cnc(Nc4ccc(S(N)(=O)=O)cc4)nc3O)c3ccc(O)cc3)[C@H]2SC1` [L]?
A: MIC [1]: 0.5 µg/mL (≈ 0.637 µM); MIC (St. aureus E 88): 4 µg/mL (≈ 5.1 µM); MIC [2]: < 0.03 µg/mL; MIC [3]: 2 µg/mL (≈ 2.55 µM); MIC [4]: 2 µg/mL (≈ 2.55 µM); MIC [5]: 0.06 µg/mL (≈ 0.0765 µM); MIC [6]: 0.06 µg/mL (≈ 0.0765 µM); MIC [7]: < 0.06 µg/mL; MIC (Proteus rettgeri): 0.13 µg/mL (≈ 0.166 µM); MIC (Eb. cloaceae ATCC 13047): 0.5 µg/mL (≈ 0.637 µM); MIC (E. coli R+TEM): 2 µg/mL; MIC [8]: 0.06 µg/mL (≈ 0.0765 µM); ED50 (E. coli ATCC 11775): 0.15 mg/kg; ED50 [9]: 2.1 mg/kg
